According to patent publication US6921767B2, “Cycloalkyl alkanoic acids as integrin receptor antagonists derivatives” (Pharmacia Corporation, priority 2000, dated 2005):

Test: IC50 test to confirm desired/undesired isomer (assay not specified)
Settings: qualitative outcome only, no number given

| SMILES | tested for IC50 to confirm as desired / undesired compound | tested for IC50 to confirm as desired / undesired compound (hydrochloride) |
| --- | --- | --- |
| CN1CCNc2nc(CCOc3ccc(C4CC4CC(=O)O)cc3)ccc21 (single isomer, unassigned; (+)) [Example 81, ((+)-2-{4-[2-(1-methyl-1,2,3,4-tetrahydropyrido[2,3-b]pyrazin-^6-yl)ethoxy]phenyl}cyclopropyl)acetic acid] | desired compound |  |
| Cl.O=C(O)CC1C(c2ccc(OCCc3ccc4c(n3)NCCC4)cc2)C1(Cl)Cl (single isomer, unassigned) [Example 85, second peak, (2,2-Dichloro-3-{4-[2-(5,6,7,8-tetrahydro-1,8-naphthyridin-2-yl)ethoxy]phenyl}cyclopropyl)acetic acid hydrochloride] |  | desired compound |
| Cl.O=C(O)CC1C(c2ccc(OCCc3ccc4c(n3)NCCC4)cc2)C1(Cl)Cl (single isomer, unassigned) [Example 85, first peak, (2,2-Dichloro-3-{4-[2-(5,6,7,8-tetrahydro-1,8-naphthyridin-2-yl)ethoxy]phenyl}cyclopropyl)acetic acid hydrochloride] |  | undesired isomer |
| CN1CCNc2nc(CCOc3ccc(C4CC4CC(=O)O)cc3)ccc21 (single isomer, unassigned; (-)) [Example 82, ((−)-2-{4-[2-(1-methyl-1,2,3,4-tetrahydropyrido[2,3-b]pyrazin-6-yl)ethoxy]phenyl}cyclopropyl)acetic acid] | undesired compound |  |
